Measured values taken from PMC7058788, “GLI1 Inhibitor SRI-38832 Attenuates Chemotherapeutic Resistance by Downregulating NBS1 Transcription in BRAF^V600E Colorectal Cancer” (Frontiers in Oncology, 2020).
Where “and” joins values, the source holds several entries; their conditions need not be identical. Equal entries are not always repeated. One block for each molecule: values may come before it.

Columns and labels:
HT29 [1] = test: Annexin V/PI flow cytometry, cell death/apoptosis; format: cell-based
Procedure: (§1) Cells were treated, in duplicate, as described in the figure legends. At the end of treatment, cells were collected by trypsinization and incubated with Annexin V FITC (BD Biosciences) and PI (Sigma) prior to analysis using a FACS Calibur flow cytometer. Data was analyzed using FlowJo software.

NBS1 = test: Western blot analysis of MRN components and damage/apoptosis markers in HT29 cells; format: cell-based, human; conditions: HT29, 20 μM, 72 h
Procedure: Cells were seeded in six-well plates and cultured until 70–80% confluent in 10% FBS-supplemented RPMI medium with L-glutamine and maintained at 37°C with 5% CO2. The cells were then treated with/without GANT61, SRI-38832, or 5-FU as indicated in the figure legends, and protein isolates were analyzed by Western blot. Briefly, 15 μg of protein was loaded and separated on a SDS-PAGE gel. Proteins were transferred to polyvinylidene difluoride (PVDF) membranes overnight. Membranes were washed in TBS-T, blotted in primary antibody overnight at 4°C, and subsequently washed and blotted with HRP-linked secondary antibody for 1 h. Membranes were developed and images were taken on an ImageQuant LAS 4000.

HCT8 [2] = test: CellTiter-Glo Luminescent Cell Viability (cell proliferation) assay; format: cell-based, human; conditions: for IC50: Homo sapiens, HCT-8, Figure 5B-D, HCT8 (low GLI1 expression), unit inferred, x-axis in μM
Procedure: (§2) Confluent monolayers of cells were trypsinized, and 10,000 cells suspended in 200 μl of medium were added to each well of the 96-well plate. […] The proliferation of the cells was determined using the CellTiter-Glo Luminescent Cell Viability Assay kit (Promega).

HT29 [3] = test: as above; format: cell-based, human
Procedure: as §2

CRC = conditions: 5-FU and its combinational treatment (FOLFOX), in the clinic; cited from earlier work
HCT116 [4] = test: COMET assay, DNA damage by tail length; format: cell-based, human; conditions: 20 μM, 48 h
Procedure: (§3) Cells were treated with/without GANT61 (20 μM), SRI-38832 (20 μM) or 5-FU (20 μM) for 48 h, subsequently trypsinized and washed in PBS before being added to preheated (37°C), low-melting point agarose. The solution was pipetted onto slides pre-coated with 1% agarose. The chilled slides were allowed to lyse for 40 min at 4°C in 2.5 M NaCl,100 mM EDTA (pH 10), 10 mM Tris Base, 1% SDS, 1% Triton X−100 prior to immersion in alkaline electrophoresis solution (300 mM NaOH, 1 mM EDTA, pH 13). After 30 min, slides were placed into a horizontal electrophoresis chamber for ~30 min (1 V/cm at 4°C). The slides were washed with deionized H2O to remove the alkaline buffer, dehydrated in 70% ice–cold EtOH and air-dried overnight. Slides were stained with SYBR-Green and examined by microscopy. Tail length (TL) was used to quantify the DNA damage. Image analysis and quantification has been performed with ImageJ.

HT29 [5] = test: COMET assay, DNA damage by tail length; format: cell-based, human; conditions: 20 μM, 48 h
Procedure: as §3

HCT8 [6] = test: Annexin V/PI flow cytometry, cell death; format: cell-based, human; conditions: 10 and 20 μM, 72 h; high GLI1 and NBS1
Procedure: as §1

HCT116 [7] = test: Annexin V/PI flow cytometry, cell death; format: cell-based, human; conditions: 10 and 20 μM, 72 h; low GLI1 and NBS1
Procedure: as §1

SW480 = test: Annexin V/PI flow cytometry, cell death; format: cell-based, human; conditions: 10 and 20 μM, 72 h; low GLI1 and NBS1
Procedure: as §1

BRAF^V600E variant = test system: BRAF^V600E variant; design: method as in PMID 26460303; conditions: single agent, BRAF^V600E CRC patients; cited from earlier work
GLI1 = molecular target: T1, GLI1 (Homo sapiens, UniProt P08151); test: ChIP assay, GLI1 enrichment on the NBS1 promoter in HT29 cells; format: cell-based; conditions: HT29, 20 μM, 24 h
T1 construct: HT29, which express GLI1 and have high basal NBS1 expression; endogenous in cells; host or cells: HT29
T1 sequence (P08151 1-1106): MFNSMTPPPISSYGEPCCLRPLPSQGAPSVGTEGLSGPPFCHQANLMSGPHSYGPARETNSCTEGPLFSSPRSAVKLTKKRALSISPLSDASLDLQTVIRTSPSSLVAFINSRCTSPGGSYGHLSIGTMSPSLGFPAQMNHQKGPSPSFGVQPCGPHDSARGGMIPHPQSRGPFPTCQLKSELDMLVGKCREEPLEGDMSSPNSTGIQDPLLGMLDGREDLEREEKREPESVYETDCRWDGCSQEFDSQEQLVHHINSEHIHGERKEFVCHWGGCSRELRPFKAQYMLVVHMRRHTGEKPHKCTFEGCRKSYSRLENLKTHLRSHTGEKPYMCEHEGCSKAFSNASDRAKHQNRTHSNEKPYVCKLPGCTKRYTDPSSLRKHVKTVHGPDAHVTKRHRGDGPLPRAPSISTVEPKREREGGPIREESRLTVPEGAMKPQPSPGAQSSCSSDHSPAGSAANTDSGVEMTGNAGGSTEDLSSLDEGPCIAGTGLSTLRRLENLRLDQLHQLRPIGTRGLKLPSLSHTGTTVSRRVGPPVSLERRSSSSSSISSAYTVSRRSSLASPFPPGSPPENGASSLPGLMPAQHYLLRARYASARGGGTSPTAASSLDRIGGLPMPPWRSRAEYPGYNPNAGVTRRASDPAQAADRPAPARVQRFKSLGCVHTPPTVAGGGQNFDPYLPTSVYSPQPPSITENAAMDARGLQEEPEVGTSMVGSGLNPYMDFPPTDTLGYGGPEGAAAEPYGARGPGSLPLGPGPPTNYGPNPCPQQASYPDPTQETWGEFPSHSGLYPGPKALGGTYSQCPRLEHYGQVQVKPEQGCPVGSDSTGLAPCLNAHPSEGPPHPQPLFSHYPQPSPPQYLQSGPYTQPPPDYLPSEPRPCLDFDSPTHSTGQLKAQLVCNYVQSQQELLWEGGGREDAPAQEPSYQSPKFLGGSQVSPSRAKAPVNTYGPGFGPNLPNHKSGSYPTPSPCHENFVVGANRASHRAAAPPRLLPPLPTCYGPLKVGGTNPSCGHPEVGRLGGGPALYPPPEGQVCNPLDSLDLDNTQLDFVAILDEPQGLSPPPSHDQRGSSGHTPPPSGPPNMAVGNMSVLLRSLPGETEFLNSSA
Procedure: HT29 cells (2 × 10^6) were seeded in T75 flasks. After overnight attachment, cells were treated with/without GANT61 (20 μM) or SRI-38832 (20 μM) for 24 h. The cells were trypsinized, washed with 1x PBS and fixed with 1.1% formaldehyde for 10 min at RT. Glycine (0.125 M) was added to stop the reaction. Cells were washed with PBS × 1 and lysed using the ChIP kit according to the manufacturer's instructions (Abcam, Ab500). To fragment the DNA, the cells were sonicated (30 s with 30 s cooling repeatedly for 15 cycles) to obtain fragmented DNA from 100 bp to 1 kB which was verified by agarose gel migration. Lysates were subjected to immunoprecipitation overnight at 4°C with 10 μg of anti-human antibodies for GLI1 (Novus) and Histone H3 for positive control provided by the Abcam ChIP kit. The complex was subsequently incubated with Dynabeads protein G (Invitrogen) for 2 h, 4°C, on a rotating wheel. Beads were washed for 10 min at 4°C with low salt buffer (2x TE, 150 mM NaCl, 1% Triton X-100, 0.1% SDS). Beads were then washed for 10 min at 4°C with high salt buffer (2x TE, 500 mM NaCl, 1% Triton X-100, 0.1% SDS). Next, beads were washed for 10 min at 4° with LiCl buffer (1x TE, 1% NP-40, 0.25 M LiCl, 1% deoxycholate). […]

NBS1 mRNA = NBS1 mRNA qRT-PCR in HT29 cells; format: cell-based, human; conditions: GANT61 as early as 24 h post treatment
Procedure: Total RNA was extracted by Invitrogen™ PureLink™ RNA Mini Kit (Fisher scientific) and cDNAs were synthesized with the ThermoScript reverse transcriptional system. qRT-PCR was performed to assess the enrichment of the specific proteins along the NBS1 ORF using specific primer pairs: NBS1-primer-1-F:[…],NBS1-primer-1-R: […]. Human GAPDH cDNA was used as an internal control.

[8] = design: method as in PMID 29338454; conditions: cited from earlier work
MRN complex = test: Confocal microscopy, NBS1 signal and NBS1/MRE11 co-localization in HT29 cells; format: cell-based, human
Procedure: Cells were plated at a density of 50,000 cells/well in six-well plates on coverslips and allowed to attach overnight. Media was removed and cells were treated with/without GANT61 (20 μM) for 48 h. Coverslips were removed and placed in a humidity chamber for fixation by absolute methanol for 10 min at 4°C. Cells were permeabilized with acetone for 1 min at 4°C. After washing with PBS × 3, cells were incubated with the diluted primary antibody overnight at 4°C. Cells were subsequently washed x 3 and incubated with appropriate secondary antibody at room temperature in the dark for 1 h. After washing with PBS, cell nuclei were stained with DAPI at RT for 5–10 min. Confocal images were acquired on a Nikon A1 laser confocal system with a Nikon Eclipse Ti microscope and a 60X Plan Apo objective. Lasers used were 405 nm for blue, 488 nm for green, and 561 nm for red. NIS Elements AR 4.5000 software was used to acquire Z-stacks of each channel sequentially to avoid spectral cross talk. Each slice was captured at a 0.15 μm step. Primary antibodies used were γH2AX (Millipore 1:200), NBS1 (Novus 1:200), and MRE11 (Cell Signaling 1:200). The co-localization index for specific foci and fluorescent intensity were calculated by ImageJ.

[9] = Homo sapiens, HT-29, Figure 5B-D, HT29 (high GLI1 expression), unit inferred, x-axis in μM
[10] = Homo sapiens, HT-29, Figure 5E, comparison on HT29, unit inferred
[11] = Homo sapiens, HT-29, HT29, values in running text

Compound: O=c1[nH]cc(F)c(=O)[nH]1 [5-FU, 5-fluorouracil]
sensitivity to 5-FU treatment (cell death) (HT29 [1]; 10 and 20 μM, 72 h, high GLI1 and NBS1): resistant
apoptotic cells after 5-FU treatment (HT29 [1]; shGLI1 HT29 cells): about 60%
apoptotic cells after 5-FU treatment (HT29 [1]; siNBS1 HT29 cells): Over 40%
dead cells after 5-FU treatment (HT29 [1]; vector HT29 cells (shGLI1 experiment)): 20%
expression of MRE11 and RAD50 (NBS1): did not result in any significant decreases
total NBS1 protein level (NBS1): did not result in any significant decreases
IC50 in HCT8 lower than in HT29 (HCT8 [2]; HCT8 vs HT29): 5 fold
IC50 (HCT8 [2]): 110 µM
IC50 (HT29 [3]; [9]): 528 µM
IC50 (HT29 [3]; [10]): 525 µM
IC50 (HT29 [3]; [11]): 625 µM
overall response rate (CRC): 10–15%
tail length relative to control (HCT116 [4]): about 3.5 time of control
induction of DNA damage (comet assay) (HT29 [5]): did not
sensitivity to 5-FU treatment (cell death) (HCT8 [6]): resistant
sensitivity to 5-FU treatment (cell death) (HCT116 [7]): highly sensitive
sensitivity to 5-FU treatment (cell death) (SW480): highly sensitive

Compound: CCCS(=O)(=O)Nc1ccc(F)c(C(=O)c2c[nH]c3ncc(-c4ccc(Cl)cc4)cc23)c1F [Vemurafenib]
response rate (BRAF^V600E variant): < 5%

Compound: CN(C)c1ccccc1CN1CCCN(Cc2ccccc2N(C)C)C1c1ccncc1 [GANT61]
GLI1 binding enrichment on the NBS1 promoter (GLI1): significantly reduced
NBS1 mRNA level (NBS1 mRNA): significantly decreased
cells rescued from apoptosis after GANT61 treatment by overexpression of any NBS1 vector (HT29 [1]; GANT61 20 μM, 72 h, NBS1, S343A or S343E overexpressing HT29): ~ 25%
apoptotic HT29 cells (HT29 [1]; time-course, 48 h of treatment): ~40%
expression of MRE11 and RAD50 (NBS1): did not substantially alter
total NBS1 protein level (NBS1): significantly decreased
γ-H2AX level (NBS1): increased levels
IC50 (HT29 [3]; Figure 6A, HT29, unit inferred): 22 µM
IC50 (HT29 [3]; HT29, values in running text): 21.9 µM and 21 µM
stability in vivo [8]: hydrolyzed and loses biological activity in vivo
co-localization of NBS1 and MRE11 (MRN complex; HT29, 20 μM): significant decrease
fluorescent signal of NBS1 (MRN complex; HT29, 20 μM (24 h in text, 48 h in legend and method)): significantly reduced
tail length relative to control (HT29 [5]): 2.5 time of control

IC50 (HCT8 [2]): 80.5 µM
IC50 higher than GANT61 (HT29 [3]; HT29 cells): 4 fold
IC50 (HT29 [3]; [9]): 78.7 µM
IC50 (HT29 [3]; [10]): 81.4 µM
IC50 (HT29 [3]; [11]): ~80 µM
Compound: CS(=O)(=O)c1ccc(C(=O)Nc2ccc(Cl)c(-c3ccccn3)c2)c(Cl)c1 [Vismodegib]
